Results: US20240397947A1 (priority 2021, published 2024)

Columns and labels:
Type in all cases: in vivo
Xanthomonas orycea = test: Comparison of SDHI fungicides on Xanthomonas orycea / rice / preventative (bacterial blight of rice); details: for Efficacy (%): rice cv. Balilla, preventative spray, 14 days incubation
Protocol: 3 week old rice plants cv. Balilla were treated with the formulated test compound in a spray chamber. Two days after application rice plants were infected by cutting the upper leaf level and the bacteria suspension applied on the cutting edges. After an incubation period of 14 days at 23° C. and 80% relative humidity, a visual assessment of the disease level was performed.

Xanthomonas campestris = test: Effect on Xanthomonas campestris on Zinnia, foliar spray; details: for Efficacy 12 DAT* (%): 1 spray application, 12 days after treatment, rate per substance as in Table 3
Protocol: Vegetatively mature zinnia plants were treated with pydiflumetofen treatments by foliar spray (for Xanthomonas or Pseudomonas spp.). One to two days post treatment, the plants were atomized with a bacterial suspension (1×10^8 cfu/mL, determined with a spectrometer) and maintained at 100% relative humidity for 24 to 48 hours to promote infection. The plants were then maintained in a greenhouse or outdoor shade structure and disease incidence and severity recorded, as well as plant health and fresh weight if applicable.

Xanthomonas perforans = test: Greenhouse test on tomato plants inoculated with Xanthomonas perforans (tomato bacterial spot), injured leaf area; details: up to 18 days after inoculation
Protocol: The experiment was carried out in a greenhouse in the Olericulture Sector of the Federal University of Goiás. The location has temperature and humidity control. Tomato seedlings cv. Totalle with two true leaves were transplanted into 1 L pots containing professional growing media. Two days after transplanting, the first application of the substances was carried out. Bion (acibenzolar-S-methyl, 25 g product/ha—12.5 g ai/ha), Miravis (pydiflumetofen, 0.60 kg product/ha—120 g ai/ha), Kocide (copper hydroxide, 1.50 kg product/ha) and Kasumin (kasugamycin, 2 L product/ha) were evaluated. The untreated control received only water. For application, the pots were placed on the floor and spraying was carried out using a spray device (having 6 nozzles with 0.5 m spacing between nozzles) with a pressurized CO2 sprayer and a spray volume of 300 L/ha.
The applications were carried out on days 1, 7 and 14. On day 9 (between the second and third applications), inoculation with a Xanthomonas perforans isolate was performed. The plants were uniformly sprayed once over all leaves with a suspension of the pathogen at a concentration of […] colony forming units per millilitre (cfu/mL). Three evaluations were performed at 6, 13 and 18 days after inoculation (DAI), and the percentage of injured leaf (area of leaf with bacterial spot) area was calculated.

Ralstonia spp. = test: Effect on Ralstonia spp. on Geranium, drench, wilt
Protocol: Vegetatively mature geranium plants were treated with pydiflumetofen treatments by drench (Ralstonia spp.). One to two days post treatment, the inoculum was applied as a soil-drench. The plants were then maintained in a greenhouse or outdoor shade structure and disease incidence and severity were recorded.

SMILES	Efficacy (%) (Xanthomonas orycea; 6 Mg ai/L)	Efficacy (%) (Xanthomonas orycea; 20 Mg ai/L)	Efficacy (%) (Xanthomonas orycea; 60 Mg ai/L)	Efficacy 12 DAT* (%) (Xanthomonas campestris)	control of Xanthomonas perforans (in words) (Xanthomonas perforans)	control of Xanthomonas orycea (in words) (Xanthomonas orycea; 6 mg ai/L)	control of Xanthomonas orycea (in words) (Xanthomonas orycea; 20 to 60 mg ai/L)	control of Xanthomonas campestris (in words) (Xanthomonas campestris; spray)	control or suppression of Ralstonia spp. (in words) (Ralstonia spp.)	% Wilt 14 DAT (Ralstonia spp.; 14 DAT)	% efficacity vs. inoculated check, 14 DAT (Ralstonia spp.; 14 DAT)	% Wilt 28 DAT (Ralstonia spp.; 28 DAT)	% efficacity vs. inoculated check, 28 DAT (Ralstonia spp.; 28 DAT)
Cn1cc(C(=O)Nc2ccccc2-c2cc(F)c(F)c(F)c2)c(C(F)F)n1 [Fluxapyroxad]	0%	0%	0%										
Cn1cc(C(=O)Nc2cccc3c2[C@@H]2CC[C@H]3C2=C(Cl)Cl)c(C(F)F)n1 (racemic) [Benzovindiflupyr, reference compound]				63%									
CC(C)c1ccc(Cl)cc1CN(C(=O)c1c(C(F)F)nn(C)c1F)C1CC1 [Isoflucypram]	0%	0%	0%										
CON(C(=O)c1cn(C)nc1C(F)F)C(C)Cc1c(Cl)cc(Cl)cc1Cl (centres unmarked) [Pydiflumetofen, 3-(difluoromethyl)-N-methoxy-1-methyl-N-[1-methyl-2-(2,4,6-trichloro-phenyl)ethyl]-1H-pyrazole-4-carboxamide]	13%	72%	99%	84%	good control	marginal effect	good control	good control	control or suppression	3.5%	84%	18%	87%
O=C(Nc1ccccc1-c1ccc(Cl)cc1)c1cccnc1Cl [Boscalid]	0%	0%	0%										
